The values below come from patent US9169254B2, “Spiroimidazolone derivative” (Chugai Seiyaku Kabushiki Kaisha, priority 2009, dated 2015).

The target in this assay is T1, human PTH1 receptor (Homo sapiens, UniProt Q03431).
T1 sequence (Q03431 27-593): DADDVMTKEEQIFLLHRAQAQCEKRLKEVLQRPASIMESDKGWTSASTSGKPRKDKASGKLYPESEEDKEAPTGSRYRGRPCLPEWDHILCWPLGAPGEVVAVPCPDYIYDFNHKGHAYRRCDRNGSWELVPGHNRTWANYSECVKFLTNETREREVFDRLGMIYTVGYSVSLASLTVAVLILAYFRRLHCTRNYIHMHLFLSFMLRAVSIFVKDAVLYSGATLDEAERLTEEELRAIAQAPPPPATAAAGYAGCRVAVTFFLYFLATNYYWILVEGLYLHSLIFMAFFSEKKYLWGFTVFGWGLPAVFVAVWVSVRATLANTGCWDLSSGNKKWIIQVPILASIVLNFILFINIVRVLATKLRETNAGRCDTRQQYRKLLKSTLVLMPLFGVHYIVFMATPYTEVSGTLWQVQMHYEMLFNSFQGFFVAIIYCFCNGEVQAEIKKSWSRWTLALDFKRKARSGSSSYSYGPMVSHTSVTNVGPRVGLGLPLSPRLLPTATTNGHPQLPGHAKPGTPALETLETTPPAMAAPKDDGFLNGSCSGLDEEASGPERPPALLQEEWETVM
Briefly: In vitro cAMP signal activity in HKRK-B7 cells (LLC-PK1 cells overexpressing the human PTH1 receptor). The conditions noted are these: HKRK-B7 cells, compound at 1×10^−3 M. In kind it is cell-based.

[1] abbreviates: cAMP produced as percentage of that produced by hPTH(1-34) at 100 nM.

`CC[C@H]1CC[C@H](C2=NC3(CCN(S(=O)(=O)/C=C/c4ccc(N5CC(=O)NC5=O)cc4C)CC3)C(=O)N2)CC1` [Compound 624, 1-(4-{(E)-2-[2-(4-Ethyl-cyclohexyl)-4-oxo-1,3,8-triaza-spiro[4.5]dec-1-ene-8-sulfonyl]-vinyl}-3-methyl-phenyl)-imidazolidine-2,4-dione]: the “cAMP production activity (%)” value under setting [1] was found to be 36%.

As for `Cc1cc(N(C)C(N)=O)cc(C)c1CCS(=O)(=O)N1CCC2(CC1)N=C(CCCCCCC(F)(F)F)NC2=O` [Compound 1045, 1-(3,5-dimethyl-4-{2-[4-oxo-2-(7,7,7-trifluoro-heptyl)-1,3,8-triaza-spiro[4.5]dec-1-ene-8-sulfonyl]-ethyl}-phenyl)-1-methyl-urea], under setting [1], the “cAMP production activity (%)” value is recorded as 106%. For `O=C1NC(c2cccc(C(F)(F)F)c2)=NC12CCN(S(=O)(=O)CCc1cccc3ccccc13)CC2` [Compound 35, 8-(2-Naphthalen-1-yl-ethanesulfonyl)-2-(3-trifluoromethyl-phenyl)-1,3,8-triaza-spiro[4.5]dec-1-en-4-one], the “cAMP production activity (%)” value under setting [1] is 56%.

On to `CNc1cc(C)c(CCS(=O)(=O)N2CCC3(CC2)N=C(C(C)(F)F)NC3=O)c(C)c1.Cl` [Compound 1287, 2-(1,1-difluoro-ethyl)-8-[2-(2,6-dimethyl-4-methylamino-phenyl)-ethanesulfonyl]-1,3,8-triaza-spiro[4.5]dec-1-en-4-one hydrochloride], for which, under setting [1], the “cAMP production activity (%)” value is on record as 64%. With `Cc1cc(OCCC(O)CO)ccc1/C=C/S(=O)(=O)N1CCC2(CC1)N=C(c1cccc(C(F)(F)F)c1)NC2=O` (stereo not shown) [Compound 210, 8-{(E)-2-[4-(3,4-Dihydroxy-butoxy)-2-methyl-phenyl]-ethenesulfonyl}-2-(3-trifluoromethyl-phenyl)-1,3,8-triaza-spiro[4.5]dec-1-en-4-one], under setting [1], the “cAMP production activity (%)” value came out at 79%. Still for that read-out and setting: then `Cc1cc(C(=O)N(C)C)ccc1CCS(=O)(=O)N1CCC2(CC1)N=C(c1cccc(S(C)(=O)=O)c1)NC2=O` [Compound 110, 4-{2-[2-(3-methanesulfonyl-phenyl)-4-oxo-1,3,8-triaza-spiro[4.5]dec-1-ene-8-sulfonyl]-ethyl}-3,N,N-trimethyl-benzamide], with 25%; and `CCSCCCCCCC1=NC2(CCN([S@TB18](=O)(=O)CCc3c(C)cc(N(C)C(N)=O)cc3C)CC2)C(=O)N1` [Compound 1154, 1-(4-{2-[2-(6-ethylsulfanyl-hexyl)-4-oxo-1,3,8-triaza-spiro[4.5]dec-1-ene-8-sulfonyl]-ethyl}-3,5-dimethyl-phenyl)-1-methyl-urea], with 115%; and `Cc1cc(C(=O)N2CCN(C(=O)CO)CC2)cc(C)c1/C=C/S(=O)(=O)N1CCC2(CC1)N=C(c1cccc(OC(F)(F)F)c1)NC2=O` [Compound 447, 8-((E)-2-{4-[4-(2-Hydroxy-acetyl)-piperazine-1-carbonyl]-2,6-dimethyl-phenyl}-ethenesulfonyl)-2-(3-trifluoromethoxy-phenyl)-1,3,8-triaza-spiro[4.5]dec-1-en-4-one], with 89%.

In the case of `Cc1cc(C(=O)N2CCC(O)(CF)CC2)cc(C)c1/C=C/S(=O)(=O)N1CCC2(CC1)N=C(c1ccc(OCC(F)(F)F)c(Cl)c1)NC2=O` [Compound 1246, 2-[3-chloro-4-(2,2,2-trifluoro-ethoxy)-phenyl]-8-{(E)-2-[4-(4-fluoromethyl-4-hydroxy-piperidine-1-carbonyl)-2,6-dimethyl-phenyl]-ethenesulfonyl}-1,3,8-triaza-spiro[4.5]dec-1-en-4-one], the “cAMP production activity (%)” value under setting [1] is 85%.

As for `Cc1cc(N(C)C(N)=O)cc(C)c1/C=C/[S@TB3](=O)(=O)N1CCC2(CC1)N=C(c1cccc(CCCCCC(F)(F)F)c1)NC2=O` [Compound 1116, 1-[3,5-dimethyl-4-((E)-2-{4-oxo-2-[3-(6,6,6-trifluoro-hexyl)-phenyl]-1,3,8-triaza-spiro[4.5]dec-1-ene-8-sulfonyl}-vinyl)-phenyl]-1-methyl-urea], the “cAMP production activity (%)” value under setting [1] turned out to be 106%.

For `CC(=O)Nc1ccc(CCS(=O)(=O)N2CCC3(CC2)N=C(C2CCC(=CCCF)CC2)NC3=O)c(C)c1` (stereo not shown) [Compound 1066, N-[4-(2-{2-[4-(3-Fluoro-propylidene)-cyclohexyl]-4-oxo-1,3,8-triaza-spiro[4.5]dec-1-ene-8-sulfonyl}-ethyl)-3-methyl-phenyl]-acetamide], the “cAMP production activity (%)” value under setting [1] was 83%. On the same count and under the same terms, then `O=C1NC(C2CCCCC2)=NC12CCN(S(=O)(=O)CCc1cc3nc[nH]c3cc1C(F)(F)F)CC2` [Compound 839, 2-cyclohexyl-8-[2-(6-trifluoromethyl-1H-benzimidazol-5-yl)-ethanesulfonyl]-1,3,8-triaza-spiro[4.5]dec-1-en-4-one], with 57%. On the same count and under the same terms, the same measure for `COCCC1CCC(C2=NC3(CCN(S(=O)(=O)CCc4ccc(NC(C)=O)cc4C)CC3)C(=O)N2)CC1` (stereo not shown) [Compound 927, N-[4-(2-{2-[4-(2-Methoxy-ethyl)-cyclohexyl]-4-oxo-1,3,8-triaza-spiro[4.5]dec-1-ene-8-sulfonyl}-ethyl)-3-methyl-phenyl]-acetamide]: 80%. Consider `Cc1cc(C(=O)N2CCC(O)CC2)cc(C)c1/C=C/S(=O)(=O)N1CCC2(CC1)N=C(c1cccc(OC(F)(F)F)c1)NC2=O` [Compound 400, 8-{(E)-2-[4-(4-hydroxy-piperidine-1-carbonyl)-2,6-dimethyl-phenyl]-ethenesulfonyl}-2-(3-trifluoromethoxy-phenyl)-1,3,8-triaza-spiro[4.5]dec-1-en-4-one], for which the “cAMP production activity (%)” value under setting [1] turned out to be 76%. For the compound `CC(=O)N(c1ccc(/C=C/S(=O)(=O)N2CCC3(CC2)N=C(c2cccc(OC(F)(F)F)c2)NC3=O)c(C)c1)C1CCN(C(=O)OC(C)(C)C)CC1` [Compound 604, 4-[acetyl-(3-methyl-4-{(E)-2-[4-oxo-2-(3-trifluoromethoxy-phenyl)-1,3,8-triaza-spiro[4.5]dec-1-ene-8-sulfonyl]-vinyl}-phenyl)-amino]-piperidine-1-carboxylic acid tert-butyl ester], the “cAMP production activity (%)” value ([…], 0.1 µM) is given as 21%. Consider `Cc1cc(OC[C@H](O)CO)cc(C)c1CCS(=O)(=O)N1CCC2(CC1)N=C(c1ccc(F)c(OC(F)(F)F)c1)NC2=O` [Compound 1329, 8-{2-[4-((R)-2,3-dihydroxy-propoxy)-2,6-dimethyl-phenyl]-ethanesulfonyl}-2-(4-fluoro-3-trifluoromethoxy-phenyl)-1,3,8-triaza-spiro[4.5]dec-1-en-4-one], for which the “cAMP production activity (%)” value under setting [1] is 85%. The same measure, in the same setting: then `COC(=O)N1CCCC(C2=NC3(CCN(S(=O)(=O)c4cccc(Cl)c4)CC3)C(=O)N2)C1` (stereo not shown) [Compound 463, 3-[8-(3-chloro-benzenesulfonyl)-4-oxo-1,3,8-triaza-spiro[4.5]dec-1-en-2-yl]-piperidine-1-carboxylic acid methyl ester], with 28%; and `CNCc1cc(C)c(/C=C/S(=O)(=O)N2CCC3(CC2)N=C(C2CCC(C)CC2)NC3=O)c(C)c1` (stereo not shown) [Compound 1289, 8-[(E)-2-(2,6-Dimethyl-4-methylaminomethyl-phenyl)-ethenesulfonyl]-2-(4-methyl-cyclohexyl)-1,3,8-triaza-spiro[4.5]dec-1-en-4-one], with 17%; and `O=C1NC(C2CCCCC2)=NC12CCN(S(=O)(=O)CCc1cccc3ncccc13)CC2` [Compound 648, 2-cyclohexyl-8-(2-quinolin-5-yl-ethanesulfonyl)-1,3,8-triaza-spiro[4.5]dec-1-en-4-one], with 61%.
